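Assay format: 96-well plates, 48-hour exposure. At the GI50, growth is halved. TGI is the concentration that stops growth completely.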
Assays:
Assay in all cases: DTP human tumour cell line panel, 48 h
[1] = system: 786-0 renal
[2] = system: A498 renal
[3] = system: A549 NSCLC
[4] = system: ACHN renal
[5] = system: BT-549 breast
[6] = system: CAKI-1 renal
[7] = system: CCRF-CEM leukemia
[8] = system: COLO 205 colon
[9] = system: DU-145 prostate
[10] = system: EKVX NSCLC
[11] = system: HCC-2998 colon
[12] = system: HCT-116 colon
[13] = system: HCT-15 colon
[14] = system: HL-60(TB) leukemia
[15] = system: HOP-62 NSCLC
[16] = system: HOP-92 NSCLC
[17] = system: HS 578T breast
[18] = system: HT29 colon
[19] = system: IGROV1 ovarian
[20] = system: K-562 leukemia
[21] = system: KM12 colon
[22] = system: LOX IMVI melanoma
[23] = system: M14 melanoma
[24] = system: MALME-3M melanoma
[25] = system: MCF7 breast
[26] = system: MDA-MB-231 breast
[27] = system: MDA-MB-435
[28] = system: MDA-MB-468 breast
[29] = system: MOLT-4 leukemia
[30] = system: NCI-H226 lung
[31] = system: NCI-H23 lung
[32] = system: NCI-H460 lung
[33] = system: NCI-H522 lung
[34] = system: NCI/ADR-RES ovarian
[35] = system: OVCAR-3 ovarian
[36] = system: OVCAR-4 ovarian
[37] = system: OVCAR-5 ovarian
[38] = system: OVCAR-8 ovarian
[39] = system: PC-3 prostate
[40] = system: RPMI-8226 leukemia
[41] = system: RXF 393 renal
[42] = system: SF-268 CNS
[43] = system: SF-295 CNS
[44] = system: SF-539 CNS
[45] = system: SK-MEL-2 melanoma
[46] = system: SK-MEL-28 melanoma
[47] = system: SK-MEL-5 melanoma
[48] = system: SK-OV-3 ovarian
[49] = system: SN12C renal
[50] = system: SNB-19 CNS
[51] = system: SNB-75 CNS
[52] = system: SR leukemia
[53] = system: SW-620 colon
[54] = system: T-47D breast
[55] = system: TK-10 renal
[56] = system: U251 CNS
[57] = system: UACC-257 melanoma
[58] = system: UACC-62 melanoma
[59] = system: UO-31 renal

C=CC(=O)Nc1nc(-c2cccc(NS(=O)(=O)c3cccc4c(N(C)C)cccc34)c2)cs1
GI50 [1]: 2.6 µM
TGI [1]: 11.7 µM
GI50 [2]: 8.83 µM
TGI [2]: 18.1 µM
GI50 [3]: 9.27 µM
TGI [3]: 21.7 µM
GI50 [4]: 3.87 µM
TGI [4]: 13.3 µM
GI50 [5]: 2.72 µM
TGI [5]: 9.07 µM
GI50 [6]: 3.74 µM
TGI [6]: 13.2 µM
GI50 [7]: 1.69 µM
TGI [7]: 5.33 µM
GI50 [8]: 9.08 µM
TGI [8]: 25.3 µM
GI50 [9]: 5.4 µM
TGI [9]: 15.2 µM
GI50 [10]: 10.5 µM
TGI [10]: 20.5 µM
GI50 [11]: 9.22 µM
TGI [11]: 18.7 µM
GI50 [12]: 2.38 µM
TGI [12]: 10.5 µM
GI50 [13]: 2.77 µM
TGI [13]: 11 µM
GI50 [14]: 2.62 µM
TGI [14]: 14.7 µM
GI50 [15]: 11.4 µM
TGI [15]: 22.2 µM
GI50 [16]: 6.16 µM
TGI [16]: 16.4 µM
GI50 [17]: 4.06 µM
TGI [17]: 26.7 µM
GI50 [18]: 2.96 µM
TGI [18]: 12.2 µM
GI50 [19]: 7.67 µM
TGI [19]: 16.4 µM
GI50 [20]: 3.15 µM
TGI [20]: 74.8 µM
GI50 [21]: 6.28 µM
TGI [21]: 18 µM
GI50 [22]: 1.61 µM
TGI [22]: 4.24 µM
GI50 [23]: 4.34 µM
TGI [23]: 16 µM
GI50 [24]: 8.53 µM
TGI [24]: 17.6 µM
GI50 [25]: 2.71 µM
TGI [25]: 11.2 µM
GI50 [26]: 3.75 µM
TGI [26]: 13.2 µM
GI50 [27]: 3.02 µM
TGI [27]: 13.9 µM
GI50 [28]: 1.96 µM
TGI [28]: 6.71 µM
GI50 [29]: 2.42 µM
TGI [29]: 12.5 µM
GI50 [30]: 10.9 µM
TGI [30]: 25.8 µM
GI50 [31]: 10.4 µM
TGI [31]: 20.8 µM
GI50 [32]: 7.81 µM
TGI [32]: 18.7 µM
GI50 [33]: 2.75 µM
TGI [33]: 11.9 µM
GI50 [34]: 3.78 µM
TGI [34]: 18.3 µM
GI50 [35]: 2.1 µM
TGI [35]: 10.5 µM
GI50 [36]: 8.29 µM
TGI [36]: 17.8 µM
GI50 [37]: 9.28 µM
TGI [37]: 18.6 µM
GI50 [38]: 7.94 µM
TGI [38]: 22.5 µM
GI50 [39]: 4.7 µM
TGI [39]: 19.7 µM
GI50 [40]: 2.1 µM
TGI [40]: 11.3 µM
GI50 [41]: 2.74 µM
TGI [41]: 11.7 µM
GI50 [42]: 5.92 µM
TGI [42]: 18.2 µM
GI50 [43]: 9.01 µM
TGI [43]: 18.8 µM
GI50 [44]: 1.79 µM
TGI [44]: 6.03 µM
GI50 [45]: 9.35 µM
TGI [45]: 19.3 µM
GI50 [46]: 5.99 µM
TGI [46]: 15.3 µM
GI50 [47]: 6.19 µM
TGI [47]: 15.8 µM
GI50 [48]: 14 µM
TGI [48]: 25.9 µM
GI50 [49]: 4.56 µM
TGI [49]: 14.5 µM
GI50 [50]: 10.2 µM
TGI [50]: 19.8 µM
GI50 [51]: 1.86 µM
TGI [51]: 10.1 µM
GI50 [52]: 2 µM
TGI [52]: 20.3 µM
GI50 [53]: 2.49 µM
TGI [53]: 10.2 µM
GI50 [54]: 4.64 µM
TGI [54]: 17.7 µM
GI50 [55]: 3.07 µM
TGI [55]: 10.6 µM
GI50 [56]: 9.04 µM
TGI [56]: 18.9 µM
GI50 [57]: 9.31 µM
TGI [57]: 19.4 µM
GI50 [58]: 3.74 µM
TGI [58]: 13.1 µM
GI50 [59]: 5.43 µM
TGI [59]: 15.1 µM
